Reference: publication PMC8948676, “Dihydropyridines Potentiate ATP-Induced Currents Mediated by the Full-Length Human P2X5 Receptor” (Molecules, 2022)

Key:
[1] = target: T1, full-length human P2X5 receptor (hP2X5^FL) (Homo sapiens, UniProt Q93086, F216L/F232L); test: two-microelectrode voltage clamp, Xenopus laevis oocytes (agonist concentration-response); type: cell-based; design: gene P2RX5; His-hP2X5^FL, full-length 444 residues including exon 10 (residues 328–349), N-terminal hexahistidine tag; homotrimer
T1 sequence (Q93086 whole entry F216L/F232L, the tested form may be a part): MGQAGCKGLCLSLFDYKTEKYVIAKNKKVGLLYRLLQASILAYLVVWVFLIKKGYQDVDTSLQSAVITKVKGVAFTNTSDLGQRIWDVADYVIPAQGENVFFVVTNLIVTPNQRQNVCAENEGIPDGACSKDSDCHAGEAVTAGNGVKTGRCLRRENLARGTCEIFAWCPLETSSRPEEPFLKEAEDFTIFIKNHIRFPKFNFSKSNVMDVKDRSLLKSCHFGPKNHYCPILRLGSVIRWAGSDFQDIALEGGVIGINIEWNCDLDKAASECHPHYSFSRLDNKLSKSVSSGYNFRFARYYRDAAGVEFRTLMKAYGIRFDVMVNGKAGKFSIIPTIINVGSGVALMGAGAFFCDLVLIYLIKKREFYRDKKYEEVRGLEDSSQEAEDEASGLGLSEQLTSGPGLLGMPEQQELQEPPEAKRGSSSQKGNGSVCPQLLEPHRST

[2] = target: T1, full-length human P2X5 receptor (hP2X5^FL); test: two-microelectrode voltage clamp, Xenopus laevis oocytes; potentiation of ATP-induced current at […]; type: cell-based; design: gene P2RX5; His-hP2X5^FL, full-length 444 residues including exon 10 (residues 328–349), N-terminal hexahistidine tag; homotrimer
[3] = target: T1, full-length human P2X5 receptor (hP2X5^FL); test: cell-based; design: gene P2RX5

In the case of `Nc1ncnc2c1ncn2[C@@H]1O[C@H](COP(=O)(O)OP(=O)(O)OP(=O)(O)O)[C@@H](OC(=O)c2ccc(C(=O)c3ccccc3)cc2)[C@H]1O` [BzATP], the “two-microelectrode voltage clamp, Xenopus laevis oocytes (agonist concentration-” value [1] is reported as “BzATP, displayed a higher affinity for hP2X5^FL than ATP but a lower efficacy”.
In the case of `COC(=O)C1=C(C)NC(C)=C(C(=O)OC(C)C)C1c1cccc2nonc12` (stereo not drawn) [isradipine], the “two-microelectrode voltage clamp, Xenopus laevis oocytes; potentiation of ATP-in” value [2] is reported as “In contrast, isradipine and nimodipine stimulated the ATP-induced currents”.
Compound `Nc1ncnc2c1ncn2[C@@H]1O[C@H](COP(=O)(O)OP(=O)(O)OP(=O)(O)O)[C@@H](O)[C@H]1O` [ATP] has an EC50 [3] of roughly 39 µM.
